The structures appear in SMILES notation. The source made the active and inactive calls. The calls are words filed in the database; no cut-off is given here.

Sequence of Advanced glycosylation end product-specific receptor (Homo sapiens) (Q15109 whole entry): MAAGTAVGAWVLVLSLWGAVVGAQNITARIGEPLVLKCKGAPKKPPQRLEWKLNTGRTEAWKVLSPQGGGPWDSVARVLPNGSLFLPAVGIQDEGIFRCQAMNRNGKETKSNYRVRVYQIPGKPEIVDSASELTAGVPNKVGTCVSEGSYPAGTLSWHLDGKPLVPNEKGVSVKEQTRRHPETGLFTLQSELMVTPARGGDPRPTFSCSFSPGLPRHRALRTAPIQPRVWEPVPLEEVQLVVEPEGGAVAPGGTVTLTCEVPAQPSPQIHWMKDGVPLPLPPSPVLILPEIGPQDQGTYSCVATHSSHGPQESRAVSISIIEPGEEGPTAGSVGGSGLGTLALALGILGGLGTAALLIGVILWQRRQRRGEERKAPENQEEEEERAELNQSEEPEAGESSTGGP

The first data set addresses Advanced glycosylation end product-specific receptor (Homo sapiens) (UniProt Q15109). Description: Inhibition of biotinylated human RAGE assessed as bound amyloid beta level at 20 uM after 60 mins by ELISA relative to control.
Details: not given
On the technique in general: ELISA stands for enzyme-linked immunosorbent assay.
Take `O=C1CCCN1CCOc1cccc(Nc2nc(-c3ccc(Cl)cc3)cc(-c3ccc(Cl)cc3)n2)c1`: the inhibition result is “inactive”.

For the molecule `COC(=O)CCOc1cccc(Nc2nc(-c3ccc(Cl)cc3)cc(-c3ccc(Cl)cc3)n2)c1`, the inhibition entry was “inactive”.

For `CCOCCOc1cccc(Nc2nc(-c3ccc(Cl)cc3)cc(-c3ccc(Cl)cc3)n2)c1`, the inhibition result is “inactive”.

In the case of `O=C1CCN(CCOc2cccc(Nc3nc(-c4ccc(Cl)cc4)cc(-c4ccc(Cl)cc4)n3)c2)CC1`, the inhibition result was “inactive”.

For the molecule `CON(C)C(=O)CCOc1cccc(Nc2nc(-c3ccc(Cl)cc3)cc(-c3ccc(Cl)cc3)n2)c1`, the inhibition entry is “inactive”.

For the molecule `O=C(O)CCOc1cccc(Nc2nc(-c3ccc(Cl)cc3)cc(-c3ccc(Cl)cc3)n2)c1`, the inhibition result was “inactive”.

Take `CO/N=C/CCOc1cccc(Nc2nc(-c3ccc(Cl)cc3)cc(-c3ccc(Cl)cc3)n2)c1`: the inhibition result was “inactive”.

Consider `Clc1ccc(-c2cc(-c3ccc(Cl)cc3)nc(Nc3cccc(OCCN4CCSCC4)c3)n2)cc1`, for which the inhibition result is “inactive”.

Consider `Clc1ccc(-c2cc(-c3ccc(Cl)cc3)nc(Nc3cccc(OCCN4CCOCC4)c3)n2)cc1`, for which the inhibition result was “inactive”.

For `CONC(=O)CCOc1cccc(Nc2nc(-c3ccc(Cl)cc3)cc(-c3ccc(Cl)cc3)n2)c1`, the inhibition result is “inactive”.

Still in this data set, the particulars now being: values are per cent of control.
As to `Clc1ccc(-c2cc(-c3ccc(Cl)cc3)nc(Nc3cccc(OCCN4CCCC4)c3)n2)cc1`, the residual binding, % of control turned out to be 114%.

Turning to `CN(C)CCOc1cccc(Nc2nc(-c3ccc(Cl)cc3)cc(-c3ccc(Cl)cc3)n2)c1`, the residual binding, % of control amounted to 24%.

On to `CCN(CC)CCCOc1cccc(Nc2nc(-c3ccc(Cl)cc3)cc(-c3ccc(Cl)cc3)n2)c1`, for which the residual binding, % of control is 84%.

Take `CCN(CCO)CCOc1cccc(Nc2nc(-c3ccc(Cl)cc3)cc(-c3ccc(Cl)cc3)n2)c1`: the residual binding, % of control worked out at 101%.

Turning to `COC1CCCN(CCOc2cccc(Nc3nc(-c4ccc(Cl)cc4)cc(-c4ccc(Cl)cc4)n3)c2)C1` (stereo unspecified), the residual binding, % of control is 48%.

Regarding `CN1CCN(CCOc2cccc(Nc3nc(-c4ccc(Cl)cc4)cc(-c4ccc(Cl)cc4)n3)c2)CC1`, the residual binding, % of control was 71%.

On to `CN(C)C1CCN(CCOc2cccc(Nc3nc(-c4ccc(Cl)cc4)cc(-c4ccc(Cl)cc4)n3)c2)C1.Cl` (stereo unspecified), for which the residual binding, % of control came out at 143%.

On to `CCN(CCOC)CCOc1cccc(Nc2nc(-c3ccc(Cl)cc3)cc(-c3ccc(Cl)cc3)n2)c1`, for which the residual binding, % of control worked out at 88%.

In the case of `NC1CCN(CCOc2cccc(Nc3nc(-c4ccc(Cl)cc4)cc(-c4ccc(Cl)cc4)n3)c2)C1` (stereo unspecified), the residual binding, % of control was found to be 106%.

With `CN1CCN(c2cccc(Nc3nc(-c4ccc(Cl)cc4)cc(-c4ccc(Cl)cc4)n3)c2)CC1`, the residual binding, % of control stood at 74%.

`Clc1ccc(-c2cc(-c3ccc(Cl)cc3)nc(Nc3cccc(OCCN4CCCCC4)c3)n2)cc1`: the residual binding, % of control came to 112%.

Take `OC1CCCN(CCOc2cccc(Nc3nc(-c4ccc(Cl)cc4)cc(-c4ccc(Cl)cc4)n3)c2)C1` (stereo unspecified): the residual binding, % of control was found to be 52%.

As to `CC(C)(C)OC(=O)NC1CCN(CCOc2cccc(Nc3nc(-c4ccc(Cl)cc4)cc(-c4ccc(Cl)cc4)n3)c2)C1` (stereo unspecified), the residual binding, % of control turned out to be 46%.

Tested on in a further data set: not listed separately
The data set can be described thus: Kinetic solubility in DMSO solution at pH 7.4 by nephelometry. Type of data set: physicochemical. The settings on record: read-out: Kinetic_solubility.
`CN(C)C1CCN(CCOc2cccc(Nc3nc(-c4ccc(Cl)cc4)cc(-c4ccc(Cl)cc4)n3)c2)C1.Cl` (stereo unspecified): the solubility kinetic was determined as 28.2 µM.

Tested on in another data set: not listed separately
The data set can be described thus: Kinetic solubility in DMSO solution at pH 4 by nephelometry. The conditions noted are these: read-out: Kinetic_solubility. Type of data set: physicochemical.
With `CN(C)C1CCN(CCOc2cccc(Nc3nc(-c4ccc(Cl)cc4)cc(-c4ccc(Cl)cc4)n3)c2)C1.Cl` (stereo unspecified), the solubility kinetic was more than 500 µM.

Take `CCN(CC)CCOc1cccc(Nc2nc(-c3ccc(Cl)cc3)cc(-c3ccc(Cl)cc3)n2)c1.Cl`: the solubility kinetic was 372 µM.
